Results published in ChEMBL document CHEMBL4414581, “Cytotoxic Limonoids from the Twigs and Leaves of Toona ciliata” (J Nat Prod, 2019).

Legend:
[1] = Cytotoxicity against human […] cells assessed as reduction in cell viability measured after 48 hrs by MTS assay; format: functional, cell-based
RAW264.7 = assay: Anti-inflammatory activity in mouse RAW264.7 cells assessed as inhibition of LPS-induced nitric oxide production measured after 18 hrs by Griess assay; format: functional, cell-based; conditions: RAW264.7, 18 h
[2] = Cytotoxicity against mouse RAW264.7 cells assessed as cell viability measured after 48 hrs by MTS assay relative to control; format: cell-based; conditions: read-out: Activity
A549 = assay: Cytotoxicity against human A549 cells assessed as reduction in cell viability measured after 48 hrs by MTS assay; format: functional, cell-based; conditions: A549, 48 h
HL-60 = assay: Cytotoxicity against human HL60 cells assessed as reduction in cell viability measured after 48 hrs by MTS assay; format: functional, cell-based; conditions: HL-60, 48 h
MCF7 = assay: Cytotoxicity against human MCF7 cells assessed as reduction in cell viability measured after 48 hrs by MTS assay; format: functional, cell-based; conditions: MCF7, 48 h
SW480 = assay: Cytotoxicity against human SW480 cells assessed as reduction in cell viability measured after 48 hrs by MTS assay; format: functional, cell-based; conditions: SW480, 48 h

Row | SMILES | IC50 [1] [µM] | IC50 (RAW264.7) [µM] | viability at 48 h [2] [%] | IC50 (A549) [µM] | IC50 (HL-60) [µM] | IC50 (MCF7) [µM] | IC50 (SW480) [µM]
1 | CC1(C)OC(=O)C=C[C@]2(C)[C@H]3CC[C@@]4(C)[C@H](C5=CC(=O)NC5=O)C[C@H]5O[C@]54[C@]3(C)C(=O)C[C@@H]12 | > 10 | 28.3 | > 100 | > 10 | > 10 | > 10 | > 10
2 | CC(=O)O[C@@H]1C[C@]2(C)[C@@H](C(=O)C[C@H]2c2ccoc2)[C@]2(C)[C@H](O)C[C@H]3C(C)(C)OC(=O)C=C[C@]3(C)[C@@H]12 | > 10 |  |  | > 10 | > 10 | > 10 | > 10
3 | C[C@]12[C@H](CC(=O)[C@]3(C)OC(=O)[C@H](O)[C@]13O)O[C@H]1[C@H]2[C@@](C)(O)[C@@]23O[C@@H]2C[C@@H](c2ccoc2)[C@]3(C)[C@H]1O | > 10 |  |  | > 10 | 0.9 | 3 | 2.5
4 | C[C@]12[C@H](CC(=O)[C@]3(C)OC(=O)[C@H](O)[C@]13O)O[C@@H]1C[C@@]3(C)[C@H](c4ccoc4)C[C@H]4O[C@]43[C@](C)(O)[C@H]12 | > 10 |  |  | > 10 | 0.8 | 4 | 2.3
5 | CO[C@@H]1C=C([C@@H]2C[C@H]3O[C@@]34[C@@]2(C)C[C@H]2O[C@H]3C[C@H](O)[C@]5(C)OC(=O)[C@H](O)[C@]5(O)[C@@]3(C)[C@@H]2[C@@]4(C)O)C(=O)O1 | > 10 |  |  | > 10 | > 10 | > 10 | > 10
6 | C[C@]12[C@H]3[C@@H](C[C@@]4(C)[C@H](c5ccoc5)C[C@H]5O[C@]54[C@]3(C)O)O[C@@]1(O)C=C[C@]1(C)OC(=O)[C@H](O)[C@]21O | > 10 |  |  | > 10 | 2.3 | 2.1 | 1.5
7 | CC1(C)OC(=O)C=C[C@]2(C)[C@H]3CC[C@@]4(C)[C@H](C5=CCNC5=O)C[C@H]5O[C@]54[C@]3(C)OC(=O)C[C@@H]12 | > 10 |  |  | > 10 | > 10 | > 10 | > 10
8 | CC1(C)OC(=O)C=C[C@]2(C)[C@H]3C[C@H](O)[C@@]4(C)[C@H](c5ccoc5)C[C@H]5O[C@]54[C@]3(C)OC(=O)C[C@@H]12 | > 10 |  |  | > 10 | > 10 | > 10 | > 10
9 | C[C@]12[C@H](C[C@H](O)[C@]3(C)OC(=O)[C@H](O)[C@]13O)O[C@@H]1C[C@@]3(C)[C@H](c4ccoc4)C[C@H]4O[C@]43[C@](C)(O)[C@H]12 | > 10 |  |  | > 10 | > 10 | > 10 | > 10
10 | C[C@]12[C@H](C[C@H](O)[C@]3(C)OC(=O)[C@H](O)[C@]13O)O[C@H]1[C@H]2[C@@](C)(O)[C@@]23O[C@@H]2C[C@@H](c2ccoc2)[C@]3(C)[C@H]1O | > 10 |  |  | > 10 | > 10 | > 10 | > 10
11 | CC1(C)OC(=O)C=C[C@]2(C)[C@H]3CC[C@]4(C)[C@@H](C(=O)C[C@H]4c4ccoc4)[C@]3(C)[C@H](O)C[C@@H]12 | > 10 |  |  | > 10 | > 10 | > 10 | > 10
12 | CO[C@]12C=C[C@]3(C)OC(=O)[C@H](O)[C@]3(O)[C@@]1(C)[C@H]1[C@@H](C[C@@]3(C)[C@H](c4ccoc4)C[C@H]4O[C@]43[C@]1(C)O)O2 | > 10 |  |  | > 10 | > 10 | > 10 | > 10
13 | CC(=O)O[C@H]1[C@@H](OC(C)=O)[C@]2(C)[C@H]([C@H](O)C[C@@]3(C)[C@H](c4ccoc4)C[C@H]4O[C@@]423)[C@@]2(C)C=CC(=O)OC(C)(C)[C@H]12 | > 10 |  |  | > 10 | > 10 | > 10 | > 10
14 | CC1(C)C(=O)C=C[C@]2(C)C3=CC[C@@]4(C)[C@H](C5=CCNC5=O)C[C@H]5O[C@]54[C@]3(C)C(=O)C[C@@H]12 | > 10 |  |  | > 10 | > 10 | > 10 | > 10
15 | C[C@]12[C@H]3[C@@H](C[C@@]4(C)[C@H](C5=CCNC5=O)C[C@H]5O[C@]54[C@]3(C)O)O[C@@]1(O)C=C[C@]1(C)OC(=O)[C@H](O)[C@]21O | > 10 |  |  | > 10 | > 10 | > 10 | > 10
16 | CO[C@@H]1C=C([C@@H]2C[C@H]3O[C@@]34[C@@]2(C)C[C@H]2O[C@@]3(O)C=C[C@]5(C)OC(=O)[C@H](O)[C@]5(O)[C@@]3(C)[C@@H]2[C@@]4(C)O)C(=O)O1 | > 10 |  |  | > 10 | > 10 | > 10 | > 10
17 | C[C@]12[C@H](c3ccoc3)C[C@H]3O[C@]31[C@](C)(O)[C@@H]1[C@H](O[C@@]3(O)C=C[C@]4(C)OC(=O)[C@H](O)[C@]4(O)[C@@]13C)[C@@H]2O | > 10 |  |  | > 10 | > 10 | > 10 | > 10
18 | C[C@]12[C@H](C[C@@H](O)[C@]3(C)OC(=O)[C@H](O)[C@]13O)O[C@@H]1C[C@@]3(C)[C@H](c4ccoc4)C[C@H]4O[C@]43[C@](C)(O)[C@H]12 | > 10 |  |  | > 10 | 0.6 | 0.9 | 0.9
19 | CC(=O)O[C@@H]1C[C@@H]2O[C@@H]3C[C@@]4(C)[C@H](c5ccoc5)C[C@H]5O[C@]54[C@](C)(O)[C@H]3[C@]2(C)[C@@]2(O)[C@@H](O)C(=O)O[C@@]12C | > 10 |  |  | > 10 | > 10 | 2.4 | 3.7
20 | CC1(C)OC(=O)C=C[C@]2(C)[C@H]3[C@H](O)C[C@@]4(C)[C@H](c5ccoc5)C[C@H]5O[C@]54[C@]3(C)C(=O)C[C@@H]12 | > 10 |  |  | > 10 | > 10 | > 10 | > 10
21 | CO[C@@H]1C=C([C@@H]2C[C@H]3O[C@@]34[C@@]2(C)CC[C@@H]2[C@@]3(C)C=CC(=O)OC(C)(C)[C@@H]3CC(=O)O[C@]24C)C(=O)O1 | > 10 |  |  | > 10 | > 10 | > 10 | > 10
22 | CC(=O)O[C@H]1[C@H]2O[C@H]3C[C@@H](O)[C@]4(C)OC(=O)[C@H](O)[C@]4(O)[C@@]3(C)[C@@H]2[C@@](C)(O)[C@@]23O[C@@H]2C[C@@H](c2ccoc2)[C@]13C | > 10 |  |  | > 10 | 1.6 | 3.7 | 4
23 | CC(=O)O[C@H]1C(=O)O[C@@]2(C)[C@H](OC(C)=O)C[C@@H]3O[C@@H]4C[C@@]5(C)[C@H](c6ccoc6)C[C@H]6O[C@]65[C@](C)(O)[C@H]4[C@]3(C)[C@@]12O | > 10 |  |  | > 10 | > 10 | 2.1 | 2.3
